Data taken from PubChem BioAssay AID1919015 (Molecular Pharmacology Branch, DTP, NCI, 2023).

Test system: OVCAR-5 complex spheroids with HUVEC/MSC, viability, % test/control
Experiment: Anticancer human tumor OVCAR-5 cell line growth inhibition [AhR];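 also: spheroids exposed to compounds for 7 days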;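 as to viability, T/C: 100% = DMSO vehicle control wells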
Details: for IC50: curve of first compound; for viability, T/C: stronger effect = lower value
Text: Multicellular complex tumor spheroid response to aryl hydrocarbon receptor antagonists in combination with a variety of drugs and investigational agents in selected tumor cell lines
The current study was undertaken to assess response to aryl hydrocarbon receptor antagonists in combination with standard-of-care drugs and investigational agents in solid tumor complex spheroid models. Complex spheroids include a stromal component modeled by human endothelial cells (HUVEC) and fibroblasts modeled by human mesenchymal stem cells (MSCs). The concentration ranges selected for each drug and investigational agent were based upon clinically achievable concentrations if the clinical Cmax of the agent was known.
Compounds. The drugs and investigational agents: BAY 2416964 (NSC825713), GNF351 (NSC835774), CH-223191 (NSC835775), CPI-455 (NSC825282), aza-TdCyd (NSC777586), decitabine (NSC127716), belinostat (NSC758774), entinostat (NSC756642), pevonedistat (NSC761192), tazemetostat (NSC777109), talazoparib (NSC765396), olaparib (NSC753686), selinexor (NSC780203), nedisertib (M3814, NSC802822), bortezomib (NSC756655), venetoclax (NSC766270), doxorubicin (NSC123127), elimusertib (BAY189344, NSC800525), ceralasertib (AZD6738, NSC777638), TAK-243 (NSC785004), alisertib (NSC759677), etoposide (NSC141540), topotecan (NSC609699), eribulin (NSC707389), gemcitabine (NSC613327), carboplatin (NSC241240), cisplatin (NSC119875), and SN-38 (NSC673596) were obtained from the National Cancer Institute (NCI) Developmental Therapeutics Program Chemical Repository (32). The FDA-approved anticancer drug set is available from the Developmental Therapeutics Program at https://dtp.cancer.gov/organization/dscb/obtaining/available plates.htm. […] The stock solutions were prepared in dimethyl sulfoxide (DMSO, Sigma-Aldrich, St. Louis, MO, cat. D2650), except for the platinum compounds which were prepared in saline (Quality Biological, Gaithersburg, MD, cat. 114-055-101), at 800-fold the tested concentration and stored at -70 degrees C prior to their use. All drugs and investigational agents were tested over a range starting from a high concentration at or near the clinical Cmax and decreasing in half-log increments. If the clinical Cmax for an agent had not been determined, the highest concentration tested was 10 microM (Table 1).
Cell Culture. All cells were maintained in an incubator at 37 degrees C and 5% CO2 with 95% humidity. The PDC lines were cultured according to standard operating procedures established by the NCI PDMR (https://pdmr.cancer.gov). Briefly, all PDCs were thawed and cultured in Matrigel-coated flasks prepared with a working solution of 1X Ham's F-12 nutrient mix, without supplementation (Invitrogen, Waltham, MA, cat. 11765054), 100 U/mL penicillin-streptomycin (Invitrogen, cat. 15140122), and 2.5% Matrigel (Corning Inc., Corning, NY, cat. 354248) for the first three passages. All PDCs were cultured in complete DMEM/F-12 media containing advanced DMEM/F-12 (Invitrogen, cat. 12634028), 4.9% defined fetal bovine serum, heat inactivated (HyClone Laboratories Inc., Logan, UT, cat. SH30070.03HI), 389 ng/mL hydrocortisone (Sigma-Aldrich, cat. H4001), 9.7 ng/mL human EGF recombinant protein (Invitrogen, cat. PHG0313), 23.4 microg/mL adenine (Sigma-Aldrich, cat. A2786), 97.3 U/mL penicillin-streptomycin (Invitrogen, cat. 15140122), 1.9 mM L-glutamine (Invitrogen, cat. 25030081), and 9.7 microM Y-27632 dihydrochloride (Tocris Bioscience, Bristol, United Kingdom, cat. 1254). The PDCs were cultured in complete DMEM/F12 media without 10 microM Y-27632 dihydrochloride for at least two passages prior to the screen. The established cell lines NCI-H1341 and […] were cultured in DMEM/F-12, HEPES (Invitrogen, cat. 11330032), 5% defined fetal bovine serum (HyClone Laboratories Inc., cat. SH30070.03), ITS premix universal culture supplement [insulin (5 microg/mL), transferrin (5 microg/mL), and selenious acid (5 ng/mL)] […]

[1] = second compound 0.1 µM, first compound 0.0316 µM
[2] = second compound 0.1 µM, first compound 0.1 µM
[3] = second compound 0.316 µM, first compound 0.0316 µM
[4] = second compound 0.316 µM, first compound 0.1 µM
[5] = second compound 1 µM, first compound 0.0316 µM
[6] = second compound 1 µM, first compound 0.1 µM
[7] = second compound 3.16 µM, first compound 0.0316 µM
[8] = second compound 3.16 µM, first compound 0.1 µM
[9] = second compound 10 µM, first compound 0.0316 µM
[10] = second compound 10 µM, first compound 0.1 µM

## CC[C@@]1(O)C(=O)OCc2c1cc1n(c2=O)Cc2cc3c(CN(C)C)c(O)ccc3nc2-1 + CC(CO)NC(=O)c1cc(-c2ccc(Cl)cc2)nn(-c2cnn(C)c2)c1=O
Second compound 0.1 µM
  IC50: > 100 nM
Second compound 0.316 µM
  IC50: > 100 nM
Second compound 1 µM
  IC50: > 100 nM
Second compound 3.16 µM
  IC50: > 100 nM
Second compound 10 µM
  IC50: > 100 nM
Second compound 0.1 µM, first compound 0.000316 µM
  viability, T/C: 112%
Second compound 0.1 µM, first compound 0.001 µM
  viability, T/C: 105%
Second compound 0.1 µM, first compound 0.00316 µM
  viability, T/C: 105%
Second compound 0.1 µM, first compound 0.01 µM
  viability, T/C: 94.9%
[1]
  viability, T/C: 61.9%
[2]
  viability, T/C: 50.9%
Second compound 0.316 µM, first compound 0.000316 µM
  viability, T/C: 111%
Second compound 0.316 µM, first compound 0.001 µM
  viability, T/C: 110%
Second compound 0.316 µM, first compound 0.00316 µM
  viability, T/C: 106%
Second compound 0.316 µM, first compound 0.01 µM
  viability, T/C: 99.5%
[3]
  viability, T/C: 59%
[4]
  viability, T/C: 54.2%
Second compound 1 µM, first compound 0.000316 µM
  viability, T/C: 119%
Second compound 1 µM, first compound 0.001 µM
  viability, T/C: 119%
Second compound 1 µM, first compound 0.00316 µM
  viability, T/C: 112%
Second compound 1 µM, first compound 0.01 µM
  viability, T/C: 107%
[5]
  viability, T/C: 59%
[6]
  viability, T/C: 56.4%
Second compound 3.16 µM, first compound 0.000316 µM
  viability, T/C: 100%
Second compound 3.16 µM, first compound 0.001 µM
  viability, T/C: 102%
Second compound 3.16 µM, first compound 0.00316 µM
  viability, T/C: 105%
Second compound 3.16 µM, first compound 0.01 µM
  viability, T/C: 93.9%
[7]
  viability, T/C: 52.9%
[8]
  viability, T/C: 55.4%
Second compound 10 µM, first compound 0.000316 µM
  viability, T/C: 99.9%
Second compound 10 µM, first compound 0.001 µM
  viability, T/C: 103%
Second compound 10 µM, first compound 0.00316 µM
  viability, T/C: 100%
Second compound 10 µM, first compound 0.01 µM
  viability, T/C: 87.4%
[9]
  viability, T/C: 54.9%
[10]
  viability, T/C: 62.8%

## CCc1c2c(nc3ccc(O)cc13)-c1cc3c(c(=O)n1C2)COC(=O)[C@]3(O)CC + CC(CO)NC(=O)c1cc(-c2ccc(Cl)cc2)nn(-c2cnn(C)c2)c1=O
Second compound 0.1 µM
  IC50: 6.63 nM
Second compound 0.316 µM
  IC50: 5.74 nM
Second compound 1 µM
  IC50: 7.31 nM
Second compound 3.16 µM
  IC50: 5.58 nM
Second compound 10 µM
  IC50: 10.6 nM
Second compound 0.1 µM, first compound 0.000949 µM
  viability, T/C: 77.5%
Second compound 0.1 µM, first compound 0.003 µM
  viability, T/C: 55.8%
Second compound 0.1 µM, first compound 0.00949 µM
  viability, T/C: 42.6%
Second compound 0.1 µM, first compound 0.03 µM
  viability, T/C: 37.8%
Second compound 0.1 µM, first compound 0.0949 µM
  viability, T/C: 17.8%
Second compound 0.1 µM, first compound 0.3 µM
  viability, T/C: 6.98%
Second compound 0.316 µM, first compound 0.000949 µM
  viability, T/C: 76%
Second compound 0.316 µM, first compound 0.003 µM
  viability, T/C: 54%
Second compound 0.316 µM, first compound 0.00949 µM
  viability, T/C: 43.9%
Second compound 0.316 µM, first compound 0.03 µM
  viability, T/C: 32.8%
Second compound 0.316 µM, first compound 0.0949 µM
  viability, T/C: 18.7%
Second compound 0.316 µM, first compound 0.3 µM
  viability, T/C: 6.72%
Second compound 1 µM, first compound 0.000949 µM
  viability, T/C: 70.5%
Second compound 1 µM, first compound 0.003 µM
  viability, T/C: 54.6%
Second compound 1 µM, first compound 0.00949 µM
  viability, T/C: 49.7%
Second compound 1 µM, first compound 0.03 µM
  viability, T/C: 35.9%
Second compound 1 µM, first compound 0.0949 µM
  viability, T/C: 15.5%
Second compound 1 µM, first compound 0.3 µM
  viability, T/C: 7.35%
Second compound 3.16 µM, first compound 0.000949 µM
  viability, T/C: 56.8%
Second compound 3.16 µM, first compound 0.003 µM
  viability, T/C: 47.6%
Second compound 3.16 µM, first compound 0.00949 µM
  viability, T/C: 48.5%
Second compound 3.16 µM, first compound 0.03 µM
  viability, T/C: 35.5%
Second compound 3.16 µM, first compound 0.0949 µM
  viability, T/C: 14.7%
Second compound 3.16 µM, first compound 0.3 µM
  viability, T/C: 6.85%
Second compound 10 µM, first compound 0.000949 µM
  viability, T/C: 51.7%
Second compound 10 µM, first compound 0.003 µM
  viability, T/C: 51.4%
Second compound 10 µM, first compound 0.00949 µM
  viability, T/C: 57.5%
Second compound 10 µM, first compound 0.03 µM
  viability, T/C: 34.5%
Second compound 10 µM, first compound 0.0949 µM
  viability, T/C: 17.7%
Second compound 10 µM, first compound 0.3 µM
  viability, T/C: 7.22%

## Nc1ccn(C2OC(CO)C(O)C2(F)F)c(=O)n1 (stereo not given) + CC(CO)NC(=O)c1cc(-c2ccc(Cl)cc2)nn(-c2cnn(C)c2)c1=O
Second compound 0.1 µM
  IC50: < 31.6 nM
Second compound 0.316 µM
  IC50: < 31.6 nM
Second compound 1 µM
  IC50: < 31.6 nM
Second compound 3.16 µM
  IC50: < 31.6 nM
Second compound 10 µM
  IC50: < 31.6 nM
[1]
  viability, T/C: 34.6%
[2]
  viability, T/C: 32.1%
Second compound 0.1 µM, first compound 0.316 µM
  viability, T/C: 28.1%
Second compound 0.1 µM, first compound 1 µM
  viability, T/C: 29.9%
Second compound 0.1 µM, first compound 3.16 µM
  viability, T/C: 30.9%
Second compound 0.1 µM, first compound 10 µM
  viability, T/C: 29.4%
[3]
  viability, T/C: 32.9%
[4]
  viability, T/C: 29.8%
Second compound 0.316 µM, first compound 0.316 µM
  viability, T/C: 28.9%
Second compound 0.316 µM, first compound 1 µM
  viability, T/C: 28.5%
Second compound 0.316 µM, first compound 3.16 µM
  viability, T/C: 31.5%
Second compound 0.316 µM, first compound 10 µM
  viability, T/C: 30.2%
[5]
  viability, T/C: 36.1%
[6]
  viability, T/C: 32.4%
Second compound 1 µM, first compound 0.316 µM
  viability, T/C: 29.6%
Second compound 1 µM, first compound 1 µM
  viability, T/C: 30.4%
Second compound 1 µM, first compound 3.16 µM
  viability, T/C: 31.3%
Second compound 1 µM, first compound 10 µM
  viability, T/C: 30.1%
[7]
  viability, T/C: 37%
[8]
  viability, T/C: 32.3%
Second compound 3.16 µM, first compound 0.316 µM
  viability, T/C: 29.6%
Second compound 3.16 µM, first compound 1 µM
  viability, T/C: 28.9%
Second compound 3.16 µM, first compound 3.16 µM
  viability, T/C: 28.7%
Second compound 3.16 µM, first compound 10 µM
  viability, T/C: 29.6%
[9]
  viability, T/C: 39.6%
[10]
  viability, T/C: 33.9%
Second compound 10 µM, first compound 0.316 µM
  viability, T/C: 30.9%
Second compound 10 µM, first compound 1 µM
  viability, T/C: 31.2%
Second compound 10 µM, first compound 3.16 µM
  viability, T/C: 32.8%
Second compound 10 µM, first compound 10 µM
  viability, T/C: 33.8%
